Experimental data reported in the CheMixHub viscosity set.

Test: xn = mol fraction of the nth substance listed

N + O=[N+]([O-])[O-].O=[N+]([O-])[O-].[Ca+2]
293.15 K, 101 kPa
Details	viscosity [mPa·s]
x2 = 0.01	0.17
x2 = 0.02	0.238
x2 = 0.042	0.355
x2 = 0.087	0.783

CCCCC(CC)COP(=O)(O)OCC(CC)CCCC (configuration not stated) + O=[N+]([O-])c1ccccc1
Details	viscosity [mPa·s]
303.15 K, 100 kPa, x1 = 0.9387	17.75

Nc1ccc(Br)cc1 + [Br-].[Br-].[Br-].[Sb+3]
323.15 K, 101 kPa
Details	viscosity [mPa·s]
x2 = 0.25	212.7
x2 = 0.333	1215
x2 = 0.4	12170
x2 = 0.45	20000
x2 = 0.48	20530
x2 = 0.5	20730
x2 = 0.52	19960
x2 = 0.55	11640
x2 = 0.6	4143
x2 = 0.75	239.8

Brc1ccc(Br)cc1 + c1ccccc1
viscosity [mPa·s], 101 kPa
Details	298.15 K	303.15 K	308.15 K	313.15 K
x1 = 0.2002	0.8249	0.7715	0.719	0.6739
x1 = 0.2312	0.8532	0.8051	0.7502	0.7021

CCCCCCCCCCCCN + c1ccccc1
303.15 K, 101 kPa
Details	viscosity [mPa·s]
x2 = 0.2072	2.122
x2 = 0.4348	1.563
x2 = 0.5228	1.375
x2 = 0.6046	1.189
x2 = 0.7998	0.8357

C[N+](=O)[O-] + c1ccccc1
Details	viscosity [mPa·s]
293.15 K, 101.33 kPa, x1 = 0.0919	0.627
293.15 K, 101.33 kPa, x1 = 0.2238	0.606
293.15 K, 101.33 kPa, x1 = 0.2978	0.597
293.15 K, 101.33 kPa, x1 = 0.3994	0.587
293.15 K, 101.33 kPa, x1 = 0.494	0.582
293.15 K, 101.33 kPa, x1 = 0.7053	0.585
293.15 K, 101.33 kPa, x1 = 0.8004	0.595
293.15 K, 101.33 kPa, x1 = 0.9073	0.62
298.15 K, 101 kPa, x1 = 0.1559	0.5732
298.15 K, 101 kPa, x1 = 0.294	0.5584
298.15 K, 101 kPa, x1 = 0.4165	0.5532
298.15 K, 101 kPa, x1 = 0.5262	0.5534
298.15 K, 101 kPa, x1 = 0.6247	0.5571
298.15 K, 101 kPa, x1 = 0.7142	0.5652
298.15 K, 101 kPa, x1 = 0.7953	0.577
298.15 K, 101 kPa, x1 = 0.8693	0.5909
298.15 K, 101 kPa, x1 = 0.9376	0.6098
298.15 K, 101 kPa, x2 = 0.1005	0.6116
298.15 K, 101 kPa, x2 = 0.2025	0.5886
298.15 K, 101 kPa, x2 = 0.3017	0.5772
298.15 K, 101 kPa, x2 = 0.4012	0.5724
298.15 K, 101 kPa, x2 = 0.5019	0.5707
298.15 K, 101 kPa, x2 = 0.6014	0.5751
298.15 K, 101 kPa, x2 = 0.7074	0.5817
298.15 K, 101 kPa, x2 = 0.7985	0.5905
298.15 K, 101 kPa, x2 = 0.8947	0.6035
303.15 K, 101 kPa, x2 = 0.1005	0.5803
303.15 K, 101 kPa, x2 = 0.2025	0.5594
303.15 K, 101 kPa, x2 = 0.3017	0.5479
303.15 K, 101 kPa, x2 = 0.4012	0.5438
303.15 K, 101 kPa, x2 = 0.5019	0.5405
303.15 K, 101 kPa, x2 = 0.6014	0.5447
303.15 K, 101 kPa, x2 = 0.7074	0.5475
303.15 K, 101 kPa, x2 = 0.7985	0.556
303.15 K, 101 kPa, x2 = 0.8947	0.5662
308.15 K, 101 kPa, x2 = 0.1005	0.5518
308.15 K, 101 kPa, x2 = 0.2025	0.5299
308.15 K, 101 kPa, x2 = 0.3017	0.5201
308.15 K, 101 kPa, x2 = 0.4012	0.5142
308.15 K, 101 kPa, x2 = 0.5019	0.512
308.15 K, 101 kPa, x2 = 0.6014	0.5126
308.15 K, 101 kPa, x2 = 0.7074	0.5157
308.15 K, 101 kPa, x2 = 0.7985	0.5234
308.15 K, 101 kPa, x2 = 0.8947	0.5309
313.15 K, 101 kPa, x2 = 0.1005	0.5218
313.15 K, 101 kPa, x2 = 0.2025	0.5031
313.15 K, 101 kPa, x2 = 0.3017	0.4923
313.15 K, 101 kPa, x2 = 0.4012	0.4862
313.15 K, 101 kPa, x2 = 0.5019	0.4829
313.15 K, 101 kPa, x2 = 0.6014	0.4843
313.15 K, 101 kPa, x2 = 0.7074	0.4865
313.15 K, 101 kPa, x2 = 0.7985	0.4912
313.15 K, 101 kPa, x2 = 0.8947	0.4977

Cc1cccc(O)c1 + c1ccccc1
308.15 K, 101 kPa
Details	viscosity [mPa·s]
x1 = 0.1019	0.6327
x1 = 0.1702	0.7272
x1 = 0.305	0.9887
x1 = 0.4025	1.282
x1 = 0.5186	1.693
x1 = 0.6441	2.436
x1 = 0.768	3.648
x1 = 0.8611	4.963
x1 = 0.9525	6.937

c1ccc(Cc2ccccc2)cc1 + c1ccccc1
302.85 K, 101 kPa
Details	viscosity [mPa·s]
x1 = 0.113	0.733
x1 = 0.204	0.877
x1 = 0.288	1.026
x1 = 0.523	1.502
x1 = 0.686	1.873
x1 = 0.801	2.132
x1 = 0.893	2.342

Cc1cccc(O)c1 + c1ccncc1
viscosity [mPa·s], 101 kPa
Details	x1 = 0.1071	x1 = 0.2168	x1 = 0.3407	x1 = 0.3927	x1 = 0.4754	x1 = 0.542	x1 = 0.6374	x1 = 0.6973	x1 = 0.8077	x1 = 0.8862
293.15 K	1.228	1.77	2.54	3.085	4.25	5.585	8.16	9.98	13.08	14.81
303.15 K	1.098	1.461	2.125	2.51	3.35	4.175	5.57	6.52	7.885	8.64
313.15 K	0.931	1.24	1.732	2.022	2.605	3.15	3.995	4.565	5.255	5.59
